Read-outs that look alike come from different tables or passages of the source.
Columns and labels:
[1] = cited from earlier work
[2] = Safety and tolerability of single-dose ponatinib 45 mg in healthy subjects; format: in vivo, human
[3] = format: in vivo, human; conditions: for V/F, geometric mean (%CV): single oral 45 mg tablet

Row | SMILES | Effect of food intake on PK [1] | Subjects with AEs at least possibly related to treatment, n (%) ([2]; 24 subjects, all regimens) | Severe AEs ([2]; all regimens) | Treatment-related increased lipase levels ([2]; all regimens) | Vital signs, ECG parameters or physical examinations ([2]; all regimens) | High triacylglycerol lipase levels ([2]; clinically significant abnormality) | Tolerability ([2]; healthy subjects, regardless of food intake regimen) | Clinically significant abnormalities (laboratory), number ([2]; in a total of five subjects) | Time at which maximum mean concentrations were reached ([3]; across high-fat, low-fat and fasted regimens, single 45-mg tablet) | Quantifiability of ponatinib in plasma ([3]; all three treatment regimens, lower limit 0·5 ng/mL) | V/F, geometric mean (%CV) ([3]; fasted) | V/F, geometric mean (%CV) ([3]; high-fat meal) | V/F, geometric mean (%CV) ([3]; low-fat meal) | Time post-dose at which maximum plasma concentration was observed ([3]; overall, fasting, high-fat and low-fat)
1 | Cc1nc(Nc2ncc(C(=O)Nc3c(C)cccc3Cl)s2)cc(N2CCN(CCO)CC2)n1 [dasatinib] | unaffected by food intake | – | – | – | – | – | – | – | – | – | – | – | – | –
2 | Cc1ccc(C(=O)Nc2ccc(CN3CCN(C)CC3)c(C(F)(F)F)c2)cc1C#Cc1cnc2cccnn12 [ponatinib, 3-[2-(imidazo[1,2-b]pyridazin-3-yl)ethynyl]-4-methyl-N-{4-[(4-methylpiperazin-1-yl)methyl]-3-(trifluoromethyl)phenyl}benzamide] | – | 10 (41·7%) subjects | no severe AEs | three | No clinically significant abnormalities | three | generally well tolerated | five | 5 to 6 h | quantifiable through the 96-h sampling interval | 1242 (30·0) L | 1104 (28·8) L | 1278 (37·6) L | ~6 h
